Measured values from patent US20240122985A1, “ANTIBODIES, COMBINATIONS COMPRISING ANTIBODIES, BIOMARKERS, USES & METHODS” (KYMAB LIMITED, priority 2016, published 2024).
Several values for one entry are separate records, joined by “and”; a condition that tells them apart may be missing. Equal values may be shown once.

Key:
[1] = system: human T-cells with allogeneic T-cell-depleted cells; experiment: Human mixed lymphocyte reaction (CellTrace Violet); format: cell-based; details: KY1005 150 μg/L, 7 days (FIG. 12H)
Experimental: Human Mixed Lymphocyte Reaction: Human MLRs were performed on unrelated healthy controls. PBMC samples were freshly isolated by Ficoll fractionation, followed by magnetic pan T-cell isolation using the Miltenyi Biotec human pan-T-cell isolation kit. Isolated T-cells were labeled with 2.5 μM CellTrace Violet (Invitrogen) and were co-cultured with irradiated (3500 cGy) on-column T-cell-depleted cell fractions from unrelated allogeneic individuals. MLR cultures were maintained for 7 days at 37° C. in XVivo15 (Lonza) supplemented with 10% FCS, 2 mM glutamine, penicillin-streptomycin and gentamycin and beta-Mercaptoethanol. KY1005 was added to the cultures at day 0 at a dose of 150 μg/L. On Day 7, cells were collected from the cultures, and were stained with antibodies against CD3, CD4, CD8, and then Live/Dead Aqua (Molecular Probes/Invitrogen) was added to exclude dead cells and debris. CellTrace Violet dilution was then measured in CD3^+, Live/Dead Aqua-cells by flow cytometry.

[2] = system: peripheral blood and tissue T-cells; experiment: Flow cytometry of T-cell subsets after HCT (Tscm, TN, TCM, TEM, Ki-67, OX40, Treg, cytokines); format: in vivo, Rhesus macaque
Experimental: Longitudinal peripheral blood samples were collected before and after haematopoietic stem cell transplant and at necropsy for flow cytometric analysis of lymphocyte subsets. Lung, liver, colon spleen and lymph node (axillary and inguinal) tissues were collected at necropsy and dissociated or enzymatically digested as appropriate for subsequent analysis of lymphocyte infiltrates by flow cytometry. Samples were analysed by multicolour flow cytometry using a LSRFortessa cell analyser (BD Biosciences) using the following T lymphocyte marker probes: CD3 (APC-Cy7 label; clone SP34-2, BD Biosciences), CD4 (BV786 label; clone L200, BD Biosciences), CD8 (BUV395 label; clone RPA-T 8, BD Bioscences), CD28 (PE-Cy7 label; clone CD28.2, eBioscience), CD95 (BV605 label; clone DX2, Biolegend). Proliferating cell populations were identified using Ki-67 (FITC label, Dako). CD4^+ or CD8^+T-cell subcompartments were labelled as follows: naïve T-cells (CD28^+/CD95^−), central memory T-cells (CD28^+/CD95^+), effector memory T-cells (CD28−/CD95^+).
Blood was collected into tubes with Sodium EDTA, and then red blood cells were lysed with lysis buffer containing ammonium chloride. Remaining leukocytes were washed with FACS buffer (PBS with 2% FBS) and stained with antibody cocktail (Table 7) for 30 minutes at 4° C. After staining, cells were washed and fixed in 1× BD Stabilising Fixative. Acquisition of flow data was performed on BD LSR Fortessa cytometer. Data were analysed using FloJo. T-cells were defined as CD3^+CD14/CD20-lymphocytes.
Peripheral blood mononuclear cells were isolated at different time points by Ficoll-Paque gradient and then were stained for cell surface markers (CD3, CD4, CD8) followed by fixation/permeabilization (using BD Cytofix/Cytoperm kit) and intracellular staining for Ki-67. Ki-67 expression in NHP peripheral blood CD4^+ (FIG. 8A) and CD8^+ (FIG. 8B) was measured. T-cells before (pre-HCT) and following allogeneic HCT in recipients being untreated (No Rx) or treated with OX40L antibody. Plots show Ki-67 expression in NHP peripheral blood bulk CD4^+ (FIG. 8C) and CD8^+ (FIG. 8D) T-cells before (pre-HCT) and following allogeneic HCT in recipients treated with rapamycin and with a combination of rapamycin and anti-OX40L antibody. Statistical analysis was performed using Holm-Sidak multiple-comparison post-test. *p<0.05.
Peripheral blood mononuclear cells were isolated prior (pre-HCT) and during terminal analysis following allogeneic HCT without immunoprophylaxis (No Rx), or treatment with rapamycin, or treatment with anti-OX40L antibody, or treatment with a combination of anti-OX40L antibody and rapamycin by Ficoll-Paque gradient and then were stained for cell surface markers (CD3, CD4, CD8, CD25, CD127 and OX40) followed by fixation/permeabilization (using BioLegend FoxP3 kit) and intracellular staining for FoxP3.
Animals were kept on the indicated immunoprophylaxis regimens. Time-points with n<3 were censored. Multiple t-test with Holm-Sidak correction was performed between the groups.
Whole blood cells were stained for CD3, CD4, CD8, CD14, CD20, CD45RA and CCR7 and then analysed by FACS. T-cells were defined as CD3^+CD14^−CD20^− lymphocytes and divided into CD4^+ and CD8^+ T-cell subsets. Memory T-cells (Tmem) were defined as CD45RA- and effector Tcells (Teff) as CD45RA+CCR7^− Tcells in both CD4 and CD8 gates. Combined populations of memory+effector CD4^+(FIG. 10A) and CD8^+(FIG. 10B) T-cells were longitudinally tracked before and at different time point following allogeneic HCT in recipients treated with anti-OX40L antibody, treated with rapamycin, or with a combination of rapamycin and anti-OX40L antibody. […]

recombinant hOX40L = target: T1, recombinant hOX40L (Homo sapiens, UniProt P23510); experiment: Surface plasmon resonance, apparent affinity to human OX40L; format: binding; details: SPR, 25° C.; CNROR = Cannot resolve off-rate
T1 construct: cDNA encoding the extracellular domain of human OX40L was cloned into a pREP4 expression plasmid; isoleucine zipper (N); made in house; host or cells: FreeStyle CHO-S (transient)
T1 sequence (P23510 with tags, fused parts or gaps): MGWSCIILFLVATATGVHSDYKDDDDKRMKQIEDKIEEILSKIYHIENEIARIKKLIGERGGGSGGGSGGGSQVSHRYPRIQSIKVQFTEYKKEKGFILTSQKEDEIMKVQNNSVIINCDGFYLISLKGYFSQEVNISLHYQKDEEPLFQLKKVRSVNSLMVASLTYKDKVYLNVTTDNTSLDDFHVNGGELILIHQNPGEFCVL
Experimental: SPR analysis was carried out using the ProteOn™ XPR36 Array System (BioRad). Anti-mouse IgG (GE Healthcare BR-1008-38) was immobilised on a GLM biosensor surface using amine coupling, the surface was then blocked using 1 M ethanolamine. Test antibodies were captured on this surface and recombinant hOX40L (human and rhesus) were used at a single concentration of 256 nM, binding sensorgrams were double referenced using a buffer injection (i.e. 0 nM) to remove baseline drift and injection artefacts. Apparent affinities for the OX40L-antibody interaction were determined using the 1:1 model inherent to the ProteOn XPR36 analysis software. The assay was run using HBS-EP (Teknova) as running buffer and carried out at 25° C.

[3] = system: Cytomegalovirus (CMV), bacterial and fungal infections; experiment: CMV monitoring and infections after transplant; format: in vivo, Rhesus macaque; details: 2D10 IgG4PE Rhesus GvHD Study, per animal
Experimental: Cytomegalovirus (CMV) monitoring was performed as previously described (Larsen et al, 2010) and is reported as CMV copies/mL of whole blood. Whole blood samples were collected and CMV viral load was measured twice weekly on days 0 to 30 post-HCT, then at least once weekly on days 31 to 60 post-HCT and then at least once every 2 weeks from day 61 until the experimental endpoint. CMV prophylaxis and treatment was performed according to our standard NHP strategy, as previously described (Zheng et al, 2017). Briefly, CMV prophylaxis was provided to all transplant recipients and included weekly Cidofovir, given at a dose of 5 mg/kg, along with renal protection with 3 doses of Probenecid (167 mg PO/dose) given within the first 24 hours after each cidofovir dose. Recipients who reactivated CMV continued cidofovir and were also treated with parenteral gancyclovir, which was given at 5 mg/kg/dose twice daily. Gancyclovir treatment was continued until CMV levels were undetectable for two weeks and then discontinued.

KY1005: antibody used for GVHD immunoprophylaxis in NHP, measured by antigen (OX40L) capture assay; not tied to 02D10 in this part
allo-proliferation of human cells in vitro [1]: inhibit allo-proliferation of human cells in vitro
frequency of OX40^+ Treg cells ([2]; FIGS. 8O and 8O-1): does not affect
relative and absolute numbers of CD4^+ TCM cells ([2]; after HCT, p<0.05): significant reductions
CD4^+ T-cell production of IFNγ, TNFα or IL-2 ([2]; after transplant (FIG. 8N)): without affecting
ability of CD4^+ T-cells to express IL17A ([2]; after transplant (FIG. 8N)): specifically reducing their ability to express IL17A
proliferation of CD8^+ T-cells ([2]; monotherapy (FIGS. 8F & 8G)): less effect
sustained CD4^+ T-cell proliferation, as measured by Ki67 expression ([2]; monotherapy (FIGS. 8F & 8G)): significant inhibitory impact
Treg to Tconv ratio ([2]; peripheral blood after HCT (FIG. 11B)): protected against the significant drop

B1: 2D10 IgG4PE: fully human anti-human OX40L monoclonal antibody, human IgG4-PE; VH Seq ID No:34, VL Seq ID No:48; 2D10-1 to -4 are stable pools (antibody, V domains shown)
VH: EVQLVESGGGLVQPGGSLRLSCAASGFTFSNYAMNWVRQAPGKGLEWVSTISGSGGATRYADSVKGRFTISRDNSRNTVYLQMNSLRVEDTAVFYCTKDRLIMATVRGPYYYGMDVWGQGTTVTVSS
VL: DIQMTQSPSSLSASVGDRVTITCRASQSISSYLNWYQQKPGKAPNLLIYAASSLQSGVPSRFSGSGSETDFTLTISSLQPEDFATYYCQQSHSVSFTFGPGTKVDIK
modifications: human IgG4-PE constant regions; 02D10 - VH Amino Acid Sequence; 02D10 - VL Amino Acid Sequence
Apparent Affinity hOX40L (nM) (recombinant hOX40L): CNROR
evidence of CMV or rhLCV infection [3]: No evidence of CMV or rhLCV infection and No (3×) and followed by autologous repopulation concurrent with evidence of CMV and rhLCV
Ki-67 expression on T-cells / T-cell proliferation ([2]; NHP peripheral blood after allogeneic HCT (FIG. 8)): reverses that expression
CD4^+ Tscm expansion ([2]; Rhesus macaque after allogeneic HCT (FIG. 4)): limited CD4^+ Tscm expansion
T(eff+mem) cell population ([2]; after allogeneic HCT (FIG. 10)): does not effectively suppress proliferation of CD8^+T(eff+mem) cells
proportion of Tscm cells compared with the sirolimus and Tac/MTX treatment ([2]; peripheral blood, post-HCT (FIG. 6a, 6b)): sustained inhibition
